Experimental findings from PMC6349869, “The palladacycle complex AJ-5 induces apoptotic cell death while reducing autophagic flux in rhabdomyosarcoma cells” (Cell Death Discovery, 2019) are described below.

A word on the IC50: it is the concentration that inhibits the measured activity by half. High values mean lower potency, low ones higher potency. For orientation: Tmax means the time from dosing to the highest level. For orientation: Cmax means the highest concentration seen after dosing. The Vd is the apparent volume that relates the amount in the body to the concentration in plasma or blood. Low values mean confinement near the circulation, high ones extensive tissue distribution.

One data set relates to MG-63 cells. Description: MTT cell viability assay, MG-63 osteosarcoma. The class given is cell-based, human. The conditions noted are these: 48 h. Background: Tetrazolium assays rely on reduction of a dye to a coloured formazan, in cell work by metabolically active cells.
A further data set concerns RH30 cells. Kind of data set: Autophagic flux by western blotting (p62; LC3II with bafilomycin A1), RH30. The class given is cell-based, human. On the procedure:
AJ-5, synthesized as previously described, was dissolved in dimethyl sulfoxide (DMSO) (D8418; Sigma Aldrich) to give a 5 mM AJ-5 stock which was stored at room temperature (RT) and used within 5 days. AJ-5 was diluted in cell culture medium to achieve the desired final concentration and a vehicle control (DMSO) of the same concentration was prepared simultaneously. Cells were treated at a confluency of 60%. For western blot experiments to determine autophagy flux, cells were treated with 200 nM bafilomycin A1 (B1793; Sigma Aldrich) for 2 h post AJ-5 treatment. Doxorubicin (z/26/0167; Teva Pharmaceutical Industries Ltd, Israel) was used as a positive control in Caspase-Glo experiments at a concentration of 0.5 µM.
Cells were lysed at 4 °C in whole-cell lysis buffer (0.125 M Tris-HCl pH 6.8, 4% SDS, 0.2% glycerol, 0.1% β-mercaptoethanol and a pinch of bromophenol blue) and boiled for 10 min. Proteins were resolved by SDS-PAGE (6–15% gels) and transferred to Hybond ECL membranes (Amersham, UK). […] Densitometry readings were obtained using ImageJ v1.50i[58] and protein expression levels were represented as a ratio of protein of interest/p38 loading control normalized to the vehicletreated control sample where appropriate. […]
(In general: A western blot detects proteins with antibodies after separation by electrophoresis.)

Data set [1] in a line: Pharmacokinetics in whole blood of healthy mice. It counts as in vivo, MF1 mice. The conditions noted are these: for Cmax: measured as Pd. On the procedure: Pharmacokinetic parameters of AJ-5 were determined after IV, IP and PO dosing to MF1 nude mice randomly divided into groups. AJ-5 was prepared in the respective formulations immediately prior to dosing. For the IV group, the compound was made up in a mixture of 10% DMSO and 90% of an IV mixture, which consisted of 60% propylene glycol, 10% ethanol and 30% polyethylene glycol. For the PO group, AJ-5 was dissolved in DMSO and a hydroxypropylmethylcellulose solution (0.5% in water) containing 0.2% Tween 80 in a ratio of 1:9. For the IP group, AJ-5 was dissolved in 10% DMSO and 90% phosphate buffer solution. Mice were permitted access to food and water ad libitum. AJ-5 was administered (100 μL) by oral gavage at a dose of 20 mg/kg (n = 3), intravenously into the penile dorsal vein at a dose of 2 mg/kg (n = 2) and intraperitoneally at a dose of 2 mg/kg (n = 3).
Blood samples (20 μL per sample) were collected by tail tip bleeding in lithium heparin tubes at predetermined time points to evaluate the kinetic profile over 24 h. Samples were stored at −80 °C until analysis. Blood samples together with calibration standards and quality controls were quantified using inductively coupled plasma mass spectrometry. All results reported are for palladium (Pd). Pharmacokinetic parameters of the AJ-5 complex were determined using non-compartmental analysis in PK Solutions 2.0 (Summit Research Systems, Montrose CO, USA).

In the data set with MG-63 cells, `CC(C)c1cccc(C(C)C)c1[N+]1=Cc2cccc[c]2[Pd-2]1([Cl])[P+](CC[P+](c1ccccc1)(c1ccccc1)[Pd-2]1([Cl])[c]2ccccc2C=[N+]1c1c(C(C)C)cccc1C(C)C)(c1ccccc1)c1ccccc1` (stereo not drawn) [AJ-5] came in with an IC50 of less than 300 nM. Further, the “Autophagic flux judged by p62 levels” value in the data set on RH30 cells (RH30, 0.1 µM or IC50, 24 and 48 h) was “appears to reduce autophagic flux”. The “LC3II in the presence of bafilomycin A1” value in the data set on RH30 cells (RH30, IC50 24 h then 200 nM bafilomycin A1 2 h) is given as “decreased levels of LC3II”. In data set [1] (IP 2 mg/kg), the “AUC0-∞” value was 88 ± 67 µmol·min/L, the BA turned out to be 49 ± 38%, the Tmax was 4.0 ± 0.00 h and the “area under the curve” value was found to be 88 min.µM/L. In data set [1] (IP 2 mg/kg), this molecule showed a Cmax of 30 ± 10 nM. For the same molecule, in data set [1] (IV 2 mg/kg), the “AUC0-∞” value worked out at 179 ± 12 µmol·min/L, the CL is on record as 9.2 mL/min/kg and the Vd worked out at 8.8 L/kg. In data set [1] (IV 2 mg/kg, 2 mg/kg), the t1/2 turned out to be 11.2 ± 4.8 h. Further, in data set [1] (PO 20 mg/kg), the “AUC0-∞” value was found to be 11 ± 2 µmol·min/L, the BA is listed as 1 ± 0.1%, the Tmax was 0.8 ± 0.3 h and the “area under the curve” value was found to be 11 min.µM/L. This molecule displayed a Cmax in data set [1] (PO 20 mg/kg) of 6 ± 7 nM. In data set [1] (ratio of AUC), the “Exposure after IP 2 mg/kg compared to PO 20 mg/kg” value is recorded as “eight-fold higher”.
